# According to patent US20240091358A1, “[…] REGULATION” (Senti Biosciences, Inc., priority 2021, published 2024):
# Key:
# Format in all cases: cell-based
# Hep3B cells = assay: Nanoluciferase activity (Promega Nanoglo) in Hep3B cells transduced with AAV2/AAV8 nanoluciferase-degron constructs, with or without IMiD (Example 5); details: for luciferase activity relative to cells not treated / minimal effective dose in vitro: Hep3B cells transduced with AAV2 construct; for luciferase activity relative to cells not treated: 1-0.01 μM drug, all concentrations tested; for minimal effective dose in vitro: concentration that may be approaching the minimal effective dose; for Fold change relative to no drug: decrease in nanoluciferase activity, Hep3B cells transduced with AAV2 nanoluciferase/degron construct
# Experimental: AAV2 and AAV8 viral vector constructs were generated that expressed nanoluciferase as a chimeric protein fused to a C-terminal degron using an A(EAAK)3A linker (SEQ ID NO: 193). Constructs were generated using packaging vectors with either AAV2 or AAV8 capsid protein.
# Luciferase activity was assessed following the general protocol below: • Day 0: Hep3b cells were plated at 50,000 cells per well in a 96 well plate • Day 1: 1e6 vg/cell AAV2 or 3e6 vg/cell AAV8 was added to cells in presence or absence of 1 μM Lenalidomide (or 1 μM-0.01 μM Lenalidomide or Pomalidomide) • Day 3: Cells were lysed and luciferase activity was measured with Promega Nanoglo kit
# HEK293Ft cells [1] = assay: SEAP QuantiBlue assay of SEAP/degron constructs in HEK293Ft cells (Example 1); details: 1 μM lenalidomide vs no drug
# donor-derived T cells [2] = assay: SEAP QuantiBlue assay of SEAP/degron constructs in donor-derived T cells (Example 1); details: 1 μM lenalidomide vs no drug
# Experimental: A series of pL17d-based viral vector constructs were generated using Secreted Alkaline Phosphatase (SEAP) fused to a degron (d913 super degron) using various linkers, as described in Table 6A with sequences listed in Table 6B. The d913 super degron is described in more detail in International Application Pub. No. WO2019/089592A1, herein incorporated by reference for all purposes.
# (§1) SEAP assays were performed using the QuantiBlue kit (Invivogen; rep-qb1). […] The CliniMACS Prodigy utilizes a closed-system, single-use disposable kits for many different cell types. The automated program performs platelet washes, CD4+& CD8+ bead labeling, and positive selection over a magnet resulting in cell suspensions with high purity. Positively selected T cells were then sampled, analyzed for cell surface phenotype via flow cytometry and cryopreserved via a controlled rate freezer. • Cells were then thawed and activated on Day 0 (1e6 cells/mL in a 24 well plate were activated 3:1 with CD3/CD28 Dynabeads) • On Day 1, 100K GS units of virus were added to cells • On Day 2, fresh media was added to T cells • On Day 4, each well was split into 2 wells of 6 well plate with +/−1 μM lenalidomide • On Day 7, cells were pelleted and 20 uL supernatant from each well was harvested and incubated with 180 uL QuantiBlue (Invivogen) for 1 h at 37 deg, SEAP activity was read out on a plate reader at 655 nm
# HEK293Ft cells [3] = assay: SEAP QuantiBlue assay of Membrane-Cleavable Degron constructs in HEK293Ft cells (Example 2); details: 1 μM lenalidomide vs no drug
# donor-derived T cells [4] = assay: SEAP QuantiBlue assay of Membrane-Cleavable Degron constructs in donor-derived T cells (Example 2); details: supernatant, 1 μM lenalidomide vs no drug
# Experimental: A series of pL17d-based viral vector constructs were generated using Secreted Alkaline Phosphatase (SEAP) fused to a degron (d913 super degron) using various linkers, including transmembrane domain containing linkers, as described in Table 8A with sequences listed in Table 8B.
# as §1, with “into 6” for “into 2”, “of 48” for “of 6”, “lenalidomide (3 wells with drug, 3 wells without)” for “lenalidomide”
# Jurkat T cells = assay: SEAP QuantiBlue assay in Jurkat T cells (Example 3); details: supernatant, 1 μM lenalidomide vs no drug
# Experimental: The viral vector constructs were generated, as described above, using Secreted Alkaline Phosphatase (SEAP) fused to a degron (d913 super degron) with various linkers, including transmembrane domain containing linkers. The constructs examined are described in Table 10.
# SEAP assays were performed using the QuantiBlue kit (Invivogen; rep-qb1). For experiments performed in Jurkat cells, the following protocol was followed: • On Day 1, cells were plated at 1e6 cells in 1 mL in a 24 well plate and 300 k GS units of virus was added • On Day 3, cells were split into 6 wells of a 48 well plate (1e5 cells in 0.5 mL) and drug was added to 3 of these wells (1 μM lenalidomide) • On Day 6, cells were pelleted and 20 uL supernatant from each well was harvested and incubated with 180 uL QuantiBlue (Invivogen) for 1 h at 37 deg, SEAP activity was read out on a plate reader at 655 nm
# donor-derived T cells [5] = assay: hIL-10 secretion from donor T cells by Luminex assay, normalized to hIL-12 (Example 4); details: for % 1 uM Len of no drug (IL10/IL12 ratio) / Mean IL10/IL12 ratio (1 uM Len) / Mean IL10/IL12 ratio (no drug): donor T cell supernatant; for % 1 uM Len of no drug (IL10/IL12 ratio): 1 uM lenalidomide relative to no drug; for Mean IL10/IL12 ratio (1 uM Len): 1 uM lenalidomide; for Mean IL10/IL12 ratio (1 uM Len) / Mean IL10/IL12 ratio (no drug): hIL-10 normalized to hIL-12
# Experimental: The viral vectors also expressed human IL-12 (hIL-12) from a separate promoter as a normalization control for cell number, viability, and transduction efficiency.
# Cytokine secretion was assessed following the general protocol below: • Day 0: Donor T cells (enriched as previously described above) were thawed and activated with CD3/CD28 Dynabeads • Day 1: T cells were transduced with viral constructs (100 k GoStix values per 1e6 cells) • Day 2: Media was changed • Day 4: Cells were passaged • Day 7: Cells were spun down, washed 3× with media, then resuspended in media+/−1 μM Lenalidomide • Day 9: Supernatants were harvested and were evaluated for hIL10 and hIL12 concentration by Luminex assay
# [6] = SEAP absorbance divided by cell count per well
Molecule,luciferase activity relative to cells not treated (Hep3B cells),minimal effective dose in vitro (Hep3B cells) [µM],Fold change relative to no drug (Hep3B cells; drug dose 0.01 uM) [fold],Fold change relative to no drug (Hep3B cells; drug dose 0.05 uM) [fold],Fold change relative to no drug (Hep3B cells; drug dose 0.1 uM) [fold],Fold change relative to no drug (Hep3B cells; drug dose 0.5 uM) [fold],Fold change relative to no drug (Hep3B cells; drug dose 1 uM) [fold],% 1 uM Len of no drug (IL10/IL12 ratio) (donor-derived T cells [5]) [%],Mean IL10/IL12 ratio (1 uM Len) (donor-derived T cells [5]),Mean IL10/IL12 ratio (no drug) (donor-derived T cells [5]),further results
Nc1cccc2c1CN(C1CCC(=O)NC1=O)C2=O (centres unmarked) [lenalidomide],significant decreases in luciferase activity,~0.01,6,18,25,35,60,–,–,–,–
Nc1cccc2c1C(=O)N(C1CCC(=O)NC1=O)C2=O (centres unmarked) [pomalidomide],significant decreases in luciferase activity,~0.01,4,12,19,18,19,–,–,–,–
Construct 419: pL17d viral vector construct expressing SEAP without a degron; SEQ ID NO: 179 [reference compound],–,–,–,–,–,–,–,–,–,–,% SEAP OFF vs. ON (Len treated/untreated *100) Normalized to cell count (HEK293Ft cells [1]; [6]): 133%; % SEAP OFF vs. ON (Len treated/untreated *100) (HEK293Ft cells [1]; supernatant): 103%; % SEAP OFF vs. ON (Len treated/untreated *100) Normalized to cell count (donor-derived T cells [2]; [6]): 169%; % SEAP OFF vs. ON (Len treated/untreated *100) (donor-derived T cells [2]; supernatant): 127%; % SEAP OFF vs. ON (Len treated/untreated *100) Normalized to cell count (HEK293Ft cells [3]; [6]): 104.3%; % SEAP OFF vs. ON (Len treated/untreated *100) (HEK293Ft cells [3]; supernatant): 70%; % SEAP OFF vs. ON (Len treated/untreated *100) (donor-derived T cells [4]): 129%; OFF % of ON (SEAP enzymatic activity) (Jurkat T cells): 105.3 (ns) %
"Construct 1584: SFFV promoter-hIL-10; minTK-hIL-12 (opposite direction); native hIL-10 without a degron; SEQ ID NO: 186 (nucleic acid, misc_feature 1..1054 Description of Artificial Sequence: Synthetic polynucleotide) DNA: CCGATAAAATAAAAGATTTTATTTAGTCTCCAGAAAAAGGGGGGAATGAAAGACCCCACCTGTAGGTTTGGCAAGCTAGCTGCAGTAACGCCATTTTGCAAGGCATGGAAAAATACCAAACCAAGAATAGAGAAGTTCAGATCAAGGGCGGGTACATGAAAATAGCTAACGTTGGGCCAAACAGGATATCTGCGGTGAGCAGTTTCGGCCCCGGCCCGGGGCCAAGAACAGATGGTCACCGCAGTTTCGGCCCCGGCCCGAGGCCAAGAACAGATGGTCCCCAGATATGGCCCAACCCTCAGCAGTTTCTTAAGACCCATCAGATGTTTCCAGGCTCCCCCAAGGACCTGAAATGACCCTGCGCCTTATTTGAATTAACCAATCAGCCTGCTTCTCGCTTCTGTTCGCGCGCTTCTGCTTCCCGAGCTCTATAAAAGAGCTCACAACCCCTCACTCGGCGCGCCAGTCCTCCGACAGACTGAGTCGCCCGGGGGGGATCTGGAGCTCTCGAGAATTCATGCACTCATCTGCTCTCCTTTGCTGTCTCGTGCTCCTGACTGGAGTACGCGCGTCACCCGGTCAAGGGACACAAAGCGAAAACTCCTGTACGCATTTTCCGGGCAACCTCCCTAATATGCTTCGCGACTTGCGAGATGCATTTTCCAGGGTGAAGACCTTCTTCCAGATGAAGGACCAGTTGGATAATCTTCTCCTCAAGGAGTCTCTTTTGGAGGACTTCAAGGGCTACCTGGGATGTCAAGCCCTTAGCGAAATGATTCAGTTTTATCTTGAAGAGGTCATGCCGCAAGCTGAGAACCAGGACCCCGACATAAAAGCCCATGTGAACTCCCTCGGCGAGAATTTGAAGACGCTGAGACTTAGATTGAGAAGATGTCATAGATTTCTCCCATGTGAGAATAAGTCCAAGGCTGTCGAGCAGGTTAAGAATGCTTTCAATAAGTTGCAGGAAAAAGGAATCTATAAGGCAATGAGCGAGTTTGACATCTTTATTAACTACATTGAGGCTTATATGACTATGAAAATTAGAAACTAA",–,–,–,–,–,–,–,131,4.09,3.11,"hIL-10 secretion upon addition of lenalidomide (donor-derived T cells [5]; donor-derived T cells, 1 μM lenalidomide): did not result in reduced secretion"
"Construct 1585: SFFV promoter-hIL-10-ADAM10/17 cleavage site-PDGFRb TM-A(EAAAK)3A-d913 degron; minTK-hIL-12 (opposite direction); SEQ ID NO: 187 (nucleic acid, misc_feature 1..1034 Description of Artificial Sequence: Synthetic polynucleotide) DNA: CCGATAAAATAAAAGATTTTATTTAGTCTCCAGAAAAAGGGGGGAATGAAAGACCCCACCTGTAGGTTTGGCAAGCTAGCTGCAGTAACGCCATTTTGCAAGGCATGGAAAAATACCAAACCAAGAATAGAGAAGTTCAGATCAAGGGCGGGTACATGAAAATAGCTAACGTTGGGCCAAACAGGATATCTGCGGTGAGCAGTTTCGGCCCCGGCCCGGGGCCAAGAACAGATGGTCACCGCAGTTTCGGCCCCGGCCCGAGGCCAAGAACAGATGGTCCCCAGATATGGCCCAACCCTCAGCAGTTTCTTAAGACCCATCAGATGTTTCCAGGCTCCCCCAAGGACCTGAAATGACCCTGCGCCTTATTTGAATTAACCAATCAGCCTGCTTCTCGCTTCTGTTCGCGCGCTTCTGCTTCCCGAGCTCTATAAAAGAGCTCACAACCCCTCACTCGGCGCGCCAGTCCTCCGACAGACTGAGTCGCCCGGGGGGGATCTGGAGCTCTCGAGAATTCATGCACTCATCTGCTCTCCTTTGCTGTCTCGTGCTCCTGACTGGAGTACGCGCGTCACCCGGTCAAGGGACACAAAGCGAAAACTCCTGTACGCATTTTCCGGGCAACCTCCCTAATATGCTTCGCGACTTGCGAGATGCATTTTCCAGGGTGAAGACCTTCTTCCAGATGAAGGACCAGTTGGATAATCTTCTCCTCAAGGAGTCTCTTTTGGAGGACTTCAAGGGCTACCTGGGATGTCAAGCCCTTAGCGAAATGATTCAGTTTTATCTTGAAGAGGTCATGCCGCAAGCTGAGAACCAGGACCCCGACATAAAAGCCCATGTGAACTCCCTCGGCGAGAATTTGAAGACGCTGAGACTTAGATTGAGAAGATGTCATAGATTTCTCCCATGTGAGAATAAGTCCAAGGCTGTCGAGCAGGTTAAGAATGCTTTCAATAAGTTGCAGGAAAAAGGAATCTATAAGGCAATGAGCGAGTTTGACATCTTTATTAACTACATTGAGGCTTATATGA",–,–,–,–,–,–,–,56,1.65,2.97,–
